Laboratory results published in US3956491A, “Medicine containing the main sapogenin of helleborus” (priority 1974, dated 1976).

Legend:
[1] = tested on: indometacin ulcer of rats; test: indometacin ulcer of rats (method of John and Adrian modified by Wilhelmi); assay type: in vivo, Albino rats of the strain SIV 50; details: for ULCER PROTECTING EFFECT: indometacin 20 mg/kg, 24 h
Protocol: These tests were carried out according to the method of John and Adrian modified by Wilhelmi on the indometacin ulcer of rats (see Arzeimittelforschung Vol. 19 (1969) pages 45 et seq.).
The determination is carried out in the following manner.
Albino rats of the strain SIV 50 (S. Ivanovas, Kisslegg/allgau) having an initial weight of 250 to 300 grams were held in controlled temperature rooms at 20° to 22°C. in wire cages (Ebeco, Type 3 double width) on a standard diet (Altromin). After 48 hour feeding intervals the animals received 20 mg/kg rat of indometacin in 1.5% tragacanth (1 ml tragacanth solution per 100 grams of rat) applied introgastrally.
One hour after giving the indometacin there was dispensed orally to the animals the test substance. The rats remain otherwise fasting (water ad libitum)
Twenty four hours after giving the indometacin the animals were killed with […]. The stomach was resected, opened along the great curvature and washed under flowing water.
The ulcerative changes appear as dark, point or stria shaped spots on the mucosa. The evaluation was done according to the method of Munchow Arneimittedforschung Vol. 4 (1954) pages 341-344.

[2] = acute toxicity in the mouse (method of Miller and Tainter); details: in vivo, oral application
Protocol: The acute toxicity of the compound of the invention in the mouse (expressed by LD50 mg/kg; method of Miller and Tainter; Proc. Soc. Exper. Biol. a. Med. Vol 57 (1944) pages 261 et seq.) on oral application, for example is above 6000 mg/kg.

[3] = tested on: histamine ulcers of guinea pigs; test: histamine type of ulcer of guinea pigs (method of Eagleton and Watt); assay type: in vivo; details: oral, histamine diphosphate 5 mg/kg
Protocol: The testing of the histamine type of ulcer of guinea pigs is carried out for example by the method of Eagleton and Watt (Peptic Ulcer, Pfeiffer, Munksgaard, Copenhagen, printed in Denmark by Aarhuus, Stiftsbogtrykkerie A/S Arhus ISBN 8716003225 pages 34-44). The entire disclosure of the Eagleton and Watt article is hereby incorporated by reference and relied upon. There were employed predominantly male guinea pigs weighing 300 to 400 grams and the test substance was applied orally after 24 hour feeding intervals and 12 hours deprivation of drinking water. One hour after giving the substance the guinea pigs were given the injection of histamine diphosphate (histamine acid phosphate) at a dosage of 5 mg/kg (the histamine diphosphate was employed in aqueous solution at a concentration of 1 mg histamine disphosphate/ml). The histamine diphosphate was injected introperitoneally. Three hours after the injection of histamine the animals were killed with CO2. The stomachs were resected and cut open along the small curvature and turned upside down over the examination finger. The ulcers were evaluated according to Munchow (Arzneimittelforschung Vol. 4 (1954 pages 341-344).
The calculated control index must in the order of magnitude between 5 and 15.

[4] = muscle relaxing activity
[5] = ulcer healing / antiulcer activity, general statement (test not specified); assay type: in vivo
[6] = central nervous system influencing activity

C=C1CC[C@@]2(OC1)O[C@H]1C[C@H]3[C@@H]4CC=C5C[C@@H](O)C[C@@H](O)[C@]5(C)[C@H]4[C@H](O)C[C@]3(C)[C@H]1[C@@H]2C [Helleborus main sapogenin, spiro-5,25(27)-diene-1β,3β,11α-triol]
ULCER PROTECTING EFFECT ([1]; daily dosage 50 mg/kg, oral): 58%
ULCER PROTECTING EFFECT ([1]; daily dosage 100 mg/kg, oral): 78%
ULCER PROTECTING EFFECT ([1]; daily dosage 200 mg/kg, oral): 80%
anti-ulcer activity ([1]; indometacin ulcers of rats, oral): good anti-ulcer activity
minimal effective dose ([1]; po, orally, above mentioned animal experiments (indometacin ulcers of rats, histamine ulcers of guinea pigs), read-out: lowest effective dosage): 50 mg/kg
LD50 [2]: > 6000 mg/kg
anti-ulcer activity [3]: good anti-ulcer activity
muscle relaxing activity [4]: muscle relaxing
antiulcer activity compared with Biogastrone ([5]; comparison with the known medicine Biogastrone): comparable to the activity of the known medicine Biogastrone
ulcer healing activity ([5]; in vivo): has an ulcer healing activity
central nervous system influencing activity [6]: central nervous system influencing activity has been established
